# According to patent publication US12077503B2, “Substituted cyclic amides and their use as herbicides” (FMC CORPORATION, priority 2015, dated 2024):
# Like-named read-outs stand apart in the source and are kept apart here.
# Columns and labels:
# Type in all cases: in vivo
# Kochia (Kochia scoparia) [1] = experiment: Test A preemergence; details: Bassia scoparia, pre-emergence, 240 h; for pest or weed control at 500 g/ha: 500 g ai/ha; for pest or weed control at 125 g/ha: 125 g ai/ha
# Procedure, shortened: (§1)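 Each rating is a visual injury score from 0 to 100 given about 10 d after treatment, judged against untreated controls kept alongside in the greenhouse. In loam soil–sand blend, seeds got a preemergence directed soil spray, while postemergence plants were 2 to 10 cm tall at spraying.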
# [2] = test system: Galium (catchweed bedstraw, Galium aparine); experiment: Test A postemergence; details: Galium, post-emergence, 240 h; for pest or weed control at 125 g/ha: 125 g ai/ha, read-out: Galium plant response rating (0 to 100 scale); for pest or weed control at 500 g/ha: 500 g ai/ha
# Procedure, shortened: as §1
# Kochia (Kochia scoparia) [3] = experiment: Test A postemergence; details: Bassia scoparia, post-emergence, 240 h; for pest or weed control at 125 g/ha: 125 g ai/ha, read-out: Kochia plant response rating (0 to 100 scale); for pest or weed control at 500 g/ha: 500 g ai/ha
# Procedure, shortened: as §1
# [4] = test system: blackgrass (Alopecurus myosuroides); experiment: Test A postemergence; details: Alopecurus myosuroides, post-emergence, 240 h; for pest or weed control at 125 g/ha: 125 g ai/ha, read-out: Blackgrass plant response rating (0 to 100 scale); for pest or weed control at 500 g/ha: 500 g ai/ha
# Procedure, shortened: as §1
# corn (Zea mays) = experiment: Test A postemergence; details: Zea mays, post-emergence, 240 h; for plant injury at 125 g/ha: 125 g ai/ha, read-out: Corn plant response rating (0 to 100 scale)
# Procedure, shortened: as §1
# [5] = test system: giant foxtail (Setaria faberii); experiment: Test A postemergence; details: Setaria faberi, post-emergence, 240 h; for pest or weed control at 125 g/ha: 125 g ai/ha, read-out: Foxtail, Giant plant response rating (0 to 100 scale); for pest or weed control at 500 g/ha: 500 g ai/ha
# Procedure, shortened: as §1
# [6] = test system: pigweed (Amaranthus retroflexus); experiment: Test A postemergence; details: Amaranthus retroflexus, post-emergence, 240 h; for pest or weed control at 125 g/ha: 125 g ai/ha, read-out: Pigweed plant response rating (0 to 100 scale); for pest or weed control at 500 g/ha: 500 g ai/ha
# Procedure, shortened: as §1
# [7] = test system: ragweed (common ragweed, Ambrosia elatior); experiment: Test A postemergence; details: Ambrosia artemisiifolia, post-emergence, 240 h; for pest or weed control at 125 g/ha: 125 g ai/ha, read-out: Ragweed plant response rating (0 to 100 scale); for pest or weed control at 500 g/ha: 500 g ai/ha
# Procedure, shortened: as §1
# [8] = test system: ryegrass, Italian (Italian ryegrass, Lolium multiflorum); experiment: Test A postemergence; details: Lolium multiflorum, post-emergence, 240 h; for pest or weed control at 125 g/ha: 125 g ai/ha, read-out: Ryegrass, Italian plant response rating (0 to 100 scale); for pest or weed control at 500 g/ha: 500 g ai/ha
# Procedure, shortened: as §1
# [9] = test system: wheat (Triticum aestivum); experiment: Test A postemergence; details: Triticum aestivum, post-emergence, 240 h; for plant injury at 125 g/ha: 125 g ai/ha, read-out: Wheat plant response rating (0 to 100 scale); for plant injury at 500 g/ha: 500 g ai/ha
# Procedure, shortened: as §1
# [10] = test system: barnyardgrass (Echinochloa crus-galli); experiment: Test B flooded paddy test; details: Echinochloa crus-galli, Flood, 250 g ai/ha
# Procedure, shortened: (§2)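 Visual ratings (0 none to 100 complete control) are relative to untreated plants, taken 13–15 d after treatment in a greenhouse. Test material went straight into floodwater standing 3 cm above the soil, kept constant, on plants at the 2-leaf stage.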
# [11] = test system: ducksalad (Heteranthera limosa); experiment: Test B flooded paddy test; details: Heteranthera limosa, Flood, 250 g ai/ha
# Procedure, shortened: as §2
# rice (Oryra sativa) = experiment: Test B flooded paddy test; details: Oryza sativa, Flood, 250 g ai/ha
# Procedure, shortened: as §2
# [12] = test system: sedge, umbrella (small-flower umbrella sedge, Cyperus difformis); experiment: Test B flooded paddy test; details: Cyperus difformis, Flood, 250 g ai/ha
# Procedure, shortened: as §2
# [13] = Postemergence, visual rating about 10 d after treatment
# [14] = postemergence, visual injury vs untreated controls after approx. 10 d, 0 = no effect, 100 = complete control
compound,measurement,setting,value
CN1C[C@H](c2ccc(C(F)(F)F)nc2)[C@@H](C(=O)Nc2ccc(F)c(F)c2F)C1=O [Compound 1373],pest or weed control at 500 g/ha,"Kochia (Kochia scoparia) [1]; preemergence, 0 to 100 scale (0 no effect, 100 complete control), read-out: Plant response rating, Kochia",100%
same,pest or weed control at 125 g/ha,"Kochia (Kochia scoparia) [1]; Preemergence, 0 to 100 scale (0 no effect, 100 complete control), read-out: Plant response rating, Kochia",100%
same,pest or weed control at 125 g/ha,[2]; [13],60%
same,pest or weed control at 500 g/ha,"[2]; Postemergence, visual injury, 0 to 100 scale (0 no effect, 100 complete control), approx. 10 d, read-out: Plant response rating, Galium",60%
same,pest or weed control at 125 g/ha,Kochia (Kochia scoparia) [3]; [13],80%
same,pest or weed control at 500 g/ha,"Kochia (Kochia scoparia) [3]; Postemergence, visual injury, 0 to 100 scale (0 no effect, 100 complete control), approx. 10 d, read-out: Plant response rating, Kochia",80%
same,pest or weed control at 125 g/ha,[4]; [13],50%
same,pest or weed control at 500 g/ha,"[4]; Postemergence, visual injury, 0 to 100 scale (0 no effect, 100 complete control), approx. 10 d, read-out: Plant response rating, Blackgrass",60%
same,plant injury at 125 g/ha,corn (Zea mays); [13],90%
same,"Corn plant response rating (crop injury, 0 = no effect, 100 = complete kill) at 500 g/ha","corn (Zea mays); Postemergence, 500 g ai/ha, visual injury, 0 to 100 scale (0 no effect, 100 complete control), approx. 10 d",90%
same,pest or weed control at 125 g/ha,[5]; [13],90%
same,pest or weed control at 500 g/ha,"[5]; Postemergence, visual injury, 0 to 100 scale (0 no effect, 100 complete control), approx. 10 d, read-out: Plant response rating, Foxtail, Giant",90%
same,pest or weed control at 125 g/ha,[6]; [13],70%
same,pest or weed control at 500 g/ha,"[6]; Postemergence, visual injury, 0 to 100 scale (0 no effect, 100 complete control), approx. 10 d, read-out: Plant response rating, Pigweed",90%
same,pest or weed control at 125 g/ha,[7]; [13],60%
same,pest or weed control at 500 g/ha,"[7]; Postemergence, visual injury, 0 to 100 scale (0 no effect, 100 complete control), approx. 10 d, read-out: Plant response rating, Ragweed",70%
same,pest or weed control at 125 g/ha,[8]; [13],30%
same,pest or weed control at 500 g/ha,"[8]; Postemergence, visual injury, 0 to 100 scale (0 no effect, 100 complete control), approx. 10 d, read-out: Plant response rating, Ryegrass, Italian",50%
same,plant injury at 125 g/ha,[9]; [13],50%
same,plant injury at 500 g/ha,"[9]; Postemergence, visual injury, 0 to 100 scale (0 no effect, 100 complete control), approx. 10 d, read-out: Plant response rating, Wheat",60%
same,pest or weed control at 250 g/ha,"[10]; 360 h, visually evaluated after 13 to 15 d, read-out: Plant response rating, Barnyardgrass (0 to 100 scale where 0 is no effect and 100 is complete control)",85%
same,pest or weed control at 250 g/ha,"[11]; 360 h, visually evaluated after 13 to 15 d, read-out: Plant response rating, Ducksalad (0 to 100 scale where 0 is no effect and 100 is complete control)",100%
same,pest or weed control at 250 g/ha,"rice (Oryra sativa); 360 h, visually evaluated after 13 to 15 d, read-out: Plant response rating, Rice (0 to 100 scale where 0 is no effect and 100 is complete control)",0%
same,pest or weed control at 250 g/ha,"[12]; 360 h, visually evaluated after 13 to 15 d, read-out: Plant response rating, Sedge, Umbrella (0 to 100 scale where 0 is no effect and 100 is complete control)",0%
COc1cc([C@H]2CN(C)C(=O)[C@@H]2C(=O)Nc2ccccc2SC)cc(OC)c1OC [Compound 1218],pest or weed control at 125 g/ha,"Kochia (Kochia scoparia) [1]; preemergence, visual injury rating, 0 to 100 scale where 0 is no effect and 100 is complete control, approximately 10 d, read-out: Kochia plant response rating",0%
same,pest or weed control at 500 g/ha,"Kochia (Kochia scoparia) [1]; preemergence, 0 to 100 scale where 0 is no effect and 100 is complete control, read-out: Kochia plant response rating",0%
same,pest or weed control at 125 g/ha,[2]; [14],0%
same,pest or weed control at 500 g/ha,"[2]; postemergence, 0 to 100 scale, 0 is no effect, 100 is complete control, read-out: Galium plant response rating",0%
same,pest or weed control at 125 g/ha,Kochia (Kochia scoparia) [3]; [14],0%
same,pest or weed control at 500 g/ha,"Kochia (Kochia scoparia) [3]; postemergence, 0 to 100 scale, 0 is no effect, 100 is complete control, read-out: Kochia plant response rating",20%
same,pest or weed control at 125 g/ha,[4]; [14],0%
same,pest or weed control at 500 g/ha,"[4]; postemergence, 0 to 100 scale, 0 is no effect, 100 is complete control, read-out: Blackgrass plant response rating",0%
same,plant injury at 125 g/ha,corn (Zea mays); [14],0%
same,plant injury at 500 g/ha,"corn (Zea mays); 500 g ai/ha, postemergence, 0 to 100 scale, 0 is no effect, 100 is complete control, read-out: Corn plant response rating",0%
same,pest or weed control at 125 g/ha,[5]; [14],0%
same,pest or weed control at 500 g/ha,"[5]; postemergence, 0 to 100 scale, 0 is no effect, 100 is complete control, read-out: Foxtail, Giant plant response rating",50%
same,pest or weed control at 125 g/ha,[6]; [14],0%
same,pest or weed control at 500 g/ha,"[6]; postemergence, 0 to 100 scale, 0 is no effect, 100 is complete control, read-out: Pigweed plant response rating",0%
same,pest or weed control at 125 g/ha,[7]; [14],0%
same,pest or weed control at 500 g/ha,"[7]; postemergence, 0 to 100 scale, 0 is no effect, 100 is complete control, read-out: Ragweed plant response rating",0%
same,pest or weed control at 125 g/ha,[8]; [14],0%
same,pest or weed control at 500 g/ha,"[8]; postemergence, 0 to 100 scale, 0 is no effect, 100 is complete control, read-out: Ryegrass, Italian plant response rating",0%
same,plant injury at 125 g/ha,[9]; [14],0%
same,plant injury at 500 g/ha,"[9]; postemergence, 0 to 100 scale, 0 is no effect, 100 is complete control, read-out: Wheat plant response rating",0%
same,pest or weed control at 250 g/ha,"[10]; 0 to 100 scale where 0 is no effect and 100 is complete control, read-out: Barnyardgrass plant response rating",0%
same,pest or weed control at 250 g/ha,"[11]; 0 to 100 scale where 0 is no effect and 100 is complete control, read-out: Ducksalad plant response rating",40%
same,pest or weed control at 250 g/ha,"rice (Oryra sativa); 0 to 100 scale where 0 is no effect and 100 is complete control, read-out: Rice plant response rating",0%
same,pest or weed control at 250 g/ha,"[12]; 0 to 100 scale where 0 is no effect and 100 is complete control, read-out: Sedge, Umbrella plant response rating",0%
